# According to patent US20120022116A1, “COMPOSITIONS AND METHODS FOR THE TREATMENT OF PATHOLOGICAL CONDITION(S) RELATED TO GPR35 AND/OR GPR35-HERG COMPLEX” (priority 2010, published 2012):
# Key:
# [1] = test system: hERG channel; assay: Cross-desensitization DMR assay against hERG activator mallotoxin-induced DMR in HT29 cells; conditions: HT29 cells pretreated with compound, then hERG activator mallotoxin
# [2] = test system: GPR35; assay: DMR desensitization / antagonism mode against GPR35 agonist-induced DMR in HT29 cells; assay type: cell-based, human; conditions: HT29 cells pretreated with compound, then GPR35 agonist
# [3] = biological target: hERG channel (Homo sapiens, UniProt Q12809); assay: Automated patch clamp recording of hERG tail current (IonWorks); conditions: hERG tail current ratio post/pre-compound, 50 uM
# [4] = biological target: T1, GPR35 (Homo sapiens, UniProt Q9HC97); assay: Ca2+ mobilization assay (Fluo-4) in HEK-GPR35-Gqo5 cells; assay type: cell-based; conditions: for Ca2+ moblization (HEK-GPR35-Gqo5): HEK293 cells co-expressing GPR35 and Gqo5, Fluo-4, compounds 10 μM; for Ca2+ mobilization signal in cells co-expressing GPR35 and Gqo5: engineered HEK293, 10 μM
# T1 construct: myc; expressed in transfected cells; host or cells: HEK293, transient co-transfection (Lipofectamine LTX)
# T1 sequence (Q9HC97 whole entry): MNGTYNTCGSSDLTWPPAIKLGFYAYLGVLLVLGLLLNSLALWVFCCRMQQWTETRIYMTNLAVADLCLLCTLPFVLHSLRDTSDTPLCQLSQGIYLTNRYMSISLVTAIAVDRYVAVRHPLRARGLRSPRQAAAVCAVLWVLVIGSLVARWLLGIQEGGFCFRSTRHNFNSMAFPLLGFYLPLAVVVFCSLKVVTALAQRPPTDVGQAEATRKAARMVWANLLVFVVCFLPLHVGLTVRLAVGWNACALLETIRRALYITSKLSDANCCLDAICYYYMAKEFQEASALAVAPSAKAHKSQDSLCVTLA
# Chain of hERG channel (Homo sapiens, UniProt Q12809) (Q12809 whole entry): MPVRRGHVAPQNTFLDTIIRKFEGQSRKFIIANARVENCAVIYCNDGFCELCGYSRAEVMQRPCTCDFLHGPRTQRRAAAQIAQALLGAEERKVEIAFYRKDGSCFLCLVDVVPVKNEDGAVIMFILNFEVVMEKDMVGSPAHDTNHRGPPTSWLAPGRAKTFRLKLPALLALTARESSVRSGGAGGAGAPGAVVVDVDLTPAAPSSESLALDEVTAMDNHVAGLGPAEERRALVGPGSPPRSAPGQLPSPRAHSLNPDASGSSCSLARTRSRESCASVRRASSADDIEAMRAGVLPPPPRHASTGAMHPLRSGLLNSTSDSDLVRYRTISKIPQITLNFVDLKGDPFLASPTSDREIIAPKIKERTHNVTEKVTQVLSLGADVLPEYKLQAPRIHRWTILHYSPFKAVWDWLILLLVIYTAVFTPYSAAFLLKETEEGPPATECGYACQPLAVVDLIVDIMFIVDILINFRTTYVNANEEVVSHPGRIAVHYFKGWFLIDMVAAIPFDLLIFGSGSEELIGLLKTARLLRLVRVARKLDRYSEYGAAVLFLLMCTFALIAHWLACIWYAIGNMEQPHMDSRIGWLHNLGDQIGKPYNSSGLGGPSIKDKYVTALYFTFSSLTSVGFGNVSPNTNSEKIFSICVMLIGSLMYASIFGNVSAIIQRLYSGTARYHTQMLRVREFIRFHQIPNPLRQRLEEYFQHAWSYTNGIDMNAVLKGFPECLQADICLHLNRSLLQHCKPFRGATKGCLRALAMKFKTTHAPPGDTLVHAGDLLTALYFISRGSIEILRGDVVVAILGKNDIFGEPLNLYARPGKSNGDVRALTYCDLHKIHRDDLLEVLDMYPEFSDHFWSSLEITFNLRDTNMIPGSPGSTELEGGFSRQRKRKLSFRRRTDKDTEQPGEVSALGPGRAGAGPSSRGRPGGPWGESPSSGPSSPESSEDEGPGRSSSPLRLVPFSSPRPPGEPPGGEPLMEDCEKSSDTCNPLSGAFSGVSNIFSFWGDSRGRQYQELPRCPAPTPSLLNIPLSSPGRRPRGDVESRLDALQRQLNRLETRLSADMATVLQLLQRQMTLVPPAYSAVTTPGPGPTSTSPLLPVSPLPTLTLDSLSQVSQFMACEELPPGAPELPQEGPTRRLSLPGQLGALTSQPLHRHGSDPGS
Ca2+ moblization (HEK-GPR35-Gqo5) [4],Ca2+ mobilization signal in cells co-expressing GPR35 and Gqo5 [4],SMILES,Desenstization to hERG activator [1],Desenstization to GPR35 agonist [2],Electrophysiology (HEK-hERG) [3]
–,–,N#C/C(=C\c1ccc(O)c(O)c1)C(N)=S [Tyrphostin 47],partially desenstized,desenstized,activator
–,–,N#C/C(=C\c1ccc(O)c(O)c1)C(N)=O [Tyrphostin 46],inactive,desenstized,inactive
active,active,O=C(O)c1cc([N+](=O)[O-])ccc1NCCCc1ccccc1 [NPPB],–,desenstized,activator
inactive,–,"CCOC(=O)c1cc2sc3cc(C(=O)OCC)sc3c2s1 [Compound 23, diethyl dithieno[3,2-b:2′,3′-d]thiophene-2,6-dicarboxylate]",–,desenstized,inactive
active,–,"CC1=C(C#N)C(=C(C#N)C#N)OC1(C)c1c(F)c(F)c(F)c(F)c1F (stereo not shown) [Compound 09, 2-dicyanomethylene-3-cyano-4,5-dimethyl-5-[2′3′4′5′6′-pentafluorophenyl]-2,5-dihydrofuran]",–,desenstized,inactive
active,active,O=C(O)c1ccccc1Nc1cccc(C(F)(F)F)c1 [Flufenamic acid],desenstized,desenstized,activator
active,–,"CC1=C(C#N)C(=C(C#N)C#N)OC1(c1ccccc1)C(F)(F)F (stereo not shown) [Compound 04, 2-dicyanomethylene-3-cyano-4-methyl-5-phenyl-5-perfluoromethyl-2,5-dihydrofuran]",–,desenstized,activator
inactive,–,CC1=C(CC(=O)O)c2cc(F)ccc2/C1=C\c1ccc([S+](C)[O-])cc1 (stereo not shown) [Sulindac],–,desenstized,blocker
active,–,"CCCCCCCCc1c(C(=O)O)sc2c(Br)csc12 [Compound 21, 3-n-octyl-6-bromo-thieno[3,2-b]thiophene-2-carboxylic acid]",–,desenstized,activator
active,–,"CCCCCCc1csc2cc(C(=O)O)sc12 [Compound 14, 6-hexyl-thieno[3,2-b]thiophene-2-carboxylic acid]",–,desenstized,blocker
–,–,N#CC(C#N)=C(N)/C(C#N)=C/c1cc(O)c(O)c(O)c1 [Tyrphostin 51],partially desenstized,desenstized,inactive
inactive,–,"CCCCc1ccc(C2(C)OC(=C(C#N)C#N)C(C#N)=C2C)cc1 (stereo not shown) [Compound 01, 2-dicyanomethylene-3-cyano-4,5-dimethyl-5-[4′-n-butylphenyl]-2,5-dihydrofuran]",–,desenstized,inactive
inactive,–,"O=C(O)c1cc2sccc2s1 [Compound 11, thieno[3,2-b]thiophene-2-carboxylic acid]",–,desenstized,inactive
active,–,"Cc1c(C(=O)O)sc2ccsc12 [Compound 12, 3-methyl-thieno[3,2-b]thiophene-2-carboxylic acid]",–,desenstized,inactive
inactive,–,O=C1OC(OC(=O)c2cccnc2Nc2cccc(C(F)(F)F)c2)c2ccccc21 (stereo not shown) [Talniflumate],–,desenstized,inactive
inactive,–,O=C(O)c1cc(/N=N/c2ccc(S(=O)(=O)Nc3ccccn3)cc2)ccc1O [Sulfasalazine],–,desenstized,inactive

SMILES,Ca2+ moblization (HEK-GPR35-Gqo5) [4],Ca2+ mobilization signal in cells co-expressing GPR35 and Gqo5 [4],Desenstization to hERG activator [1],Desenstization to GPR35 agonist [2],Electrophysiology (HEK-hERG) [3]
Cc1ccc(Cl)c(Nc2ccccc2C(=O)O)c1Cl [Meclofenamate],inactive,–,partially desenstized,desenstized,–
"CN(CCO)c1ccc(C=Cc2ccc(C(=O)[O-])s2)cc1.[Li+] [Compound 26, 5-{2-[4-(N-methyl, N-2-hydroxyethyl-amino)phenyl]ethenyl}-thiophene-2-formate lithium]",active,–,–,desenstized,inactive
O=C([O-])c1ccc(-c2ccc(/C=C/c3ccc(N(CCO)CCO)cc3)s2)s1.[Na+] [Compound 29],active,–,partially desenstized,desenstized,activator
